Experimental data published in article PMC3017119, “Structural Basis for the Recognition of Cellular mRNA Export Factor REF by Herpes Viral Proteins HSV-1 ICP27 and HVS ORF57” (PLoS Pathogens, 2011).
Where no end group is shown, it is not given here.

These substances were tested on REF^156–218 (REF2-I C-terminal domain) (assay: NMR 1H-15N correlation spectra of 15N-labelled REF^156–218 with added viral protein constructs). Conditions: 2-fold excess of viral construct; 15N-HSQC.
Assay type: binding, murine
“…SCKTSWADRVREAAAQRR [HVS ORF57^8–120, recombinant fragment aa 8–120 of Herpesvirus saimiri ORF57, with T7 and poly-His tags]” was tested, and the “Changes in 1H-15N correlation spectra of 15N-REF^156–218 upon addition” value was “No significant changes”.

These substances were tested on GST-REF2-I (assay: GST-REF2-I pull down of 35S-radiolabelled ICP27 fragments). Conditions: 35S-radiolabelled protein from rabbit reticulocytes, glutathione beads, RB100 buffer pH 7.5, 10 µg/ml RNAse A; SDS-PAGE, PhosphoImage.
Assay type: binding, murine
Source text: To confirm the position of REF-binding domains within ICP27 and ORF57 and to minimise the size of constructs for more detailed NMR mapping, a series of fragments derived from HSV-1 ICP27 were screened for binding to GST-REF2-I using pull down assays (Fig. 1). […] The REF-binding fragment of ORF57 aa 8–120 identified previously similarly interacted with the same fragments of REF (Fig. 1D).
Figure 1 Identification of regions for the interactions between REF and ICP27/ORF57. (A) Subdivision of ICP27, ORF57 and REF2-I in fragments. […] (C) Fusion of the ICP27^103–138 peptide to GST allows a specific pull down of REF, REF^1–155 (NM) and REF^54–155 (Δ53) and a very weak pull down of the REF^1–70 (N); no interaction is detected with the control Ras protein. (D) Same pull down assay as panel C but using GST fusion of ORF57 aa 8–120 in place of ICP27.
GST or GST protein fusions were first immobilised on 30 µl slurry glutathione-coated beads (GE Healthcare) before 8 µl ^35S-radiolabelled proteins synthesised in rabbit reticulocytes (Promega) were added to the binding reactions in RB100 buffer (25 mM HEPES pH 7.5/100 mM KOAc/10 mM MgCl2/1 mM DTT/0.05% Triton X-100/10% glycerol) in presence of 10 µg/ml RNAse A. Washed and eluted protein complexes were resolved on 15% SDS-PAGE stained with Coomassie blue and analysed by PhosphoImage. […]
With “ICP27^1–103: fragment aa 1–103 of HSV-1 ICP27” the “Binding to GST-REF2-I in pull down” value was “no binding”. For “ICP27^139–512: fragment aa 139–512 of HSV-1 ICP27”, the “Binding to GST-REF2-I in pull down” value was “no binding”.

What follows are substances tested against T1, REF^54–155 (REF2-I RRM domain) (Mus musculus, UniProt Q9JJW6) (assay: NMR chemical shift titration of 15N-REF^54–155 with viral peptides (dissociation constants)). Conditions: not given.
T1 construct: made in house
Assay type: binding, murine
Procedure: A separate titration of each peptide was carried out under the same sample conditions. Increasing amounts of peptide were added to a ^15N-REF^54–155 sample, achieving binding saturation whenever possible. Throughout these titrations amide chemical shift changes were monitored to assess the relative binding affinity of these peptides for REF and simultaneously map their binding sites. Estimates of dissociation constants were obtained for each peptide, and for the longer viral adaptor fragments (Table 2). […] A reduction in affinity was more pronounced in the L108A mutant, with the R107A mutation virtually abolishing the binding. […] This agrees with the NMR mapping data that a longer sequence from ORF57 (residues 103–120) is involved in REF binding. […] These latter two viral adaptors lack the signature Trp residue, and additionally in KSHV-ORF57 the Arg within the triad is replaced by Lys. As a further control, we also checked if binding of the viral peptides is specific to the RRM domain of REF, or if it can occur with RRMs of other proteins as well. The proteins SF2 [37] and 9G8 [38] bind TAP/p15 and have roles in splicing and mRNA export somewhat similar to that of REF/Aly. They also contain an RRM domain and are therefore structurally homologous to REF/Aly. To test if the same ICP27 motif could interact with these RRM domains, we added a 5-fold excess of WT ICP27^103–112 peptide to ^15N-labelled SF2 [37] and 9G8 [38]. […] These experiments confirmed that the recognition of the REF RRM domain by viral adaptor proteins is highly specific, and the isolated peptides ICP27^103–112, ICP27^103–110 and ORF57^103–120 are able to bind REF as efficiently as longer fragments of these viral proteins.
All experiments were carried out at 30°C on Bruker DRX600, DRX700 and Varian Inova 800 MHz spectrometers equipped with cryoprobes. The weighted chemical shift changes of amide signals δCS caused by complex formation were measured as [drawing 1] , where Δδ^H and Δδ^N were changes in proton and nitrogen chemical shifts, respectively. Standard triple-resonance experiments were used to assign spectra of ICP27^103–138, ORF57^8–120 and REF^54–155 in their free and bound states. Additionally, carbon-detection experiments (CON, CaCO, CbCaCO, CbCaCO(N), CbCaNCO) were used as an aid to the ORF57 assignment. Spectra were processed using NMRpipe and Topspin 2.1 (Bruker) and analysed using Sparky (University of California). Distance restraints obtained from 3D ^15N- and ^13C edited NOESY-HSQC experiments (τm 120 ms) and dihedral restraints from TALOS [51] were used in structure calculations by CYANA [52]. Additionally, intermolecular contacts were unambiguously identified using ^13C edited, ^12C-filtered NOESY-HSQC (τm 150 ms) spectra acquired on Varian Inova 800 MHz spectrometer. In this experiment only NOE crosspeaks between ^1H-^13C moieties of ^13C,^15N-labelled REF and ^1H(^12C) of unlabelled ICP27 peptide were observed, [54]. A final ensemble contained 20 structures with lowest target function values. Images were generated using Pymol (DeLano Scientific). For the REF - ICP27 complex, structure coordinates and experimental constraints have been deposited into the Protein Data Bank and chemical shifts in the BioMagResBank (access numbers 2kt5 and bmr16683 respectively). Other chemical shift assignments deposited in the BioMagResBank are: free ICP27^103–138 bmr16696, free REF^54–155 bmr16697, and ORF57^8–120 bmr16698 (both free and bound to REF^54–155).
Unlabelled synthetic peptides were obtained from Peptide Protein Research Ltd (UK). The synthetic peptide sequences used were from Varicella-zoster virus ORF4^108–119 (AAY57694), Kaposi's sarcoma-associated herpesvirus ORF57^100–110 (YP_001129410), Herpesvirus Saimiri ORF57^103–120 & 105–115 (CAC84353), Herpes simplex virus 1 ICP27^103–110 & 103–112 (AAF43147). […]
KTSWADRVREA [HVS ORF57^105–115] gave a Kd greater than 1000 µM. For “NRYGKKIKFGT [KSHV ORF57^100–110, reference compound]”, the Kd was greater than 100000 µM. “SCKTSAADRVREAAAQRR [HVS ORF57^103–120 W108A]” was tested, and the Kd was greater than 7500 µM. With “SCKTSWADAVREAAAQRR [HVS ORF57^103–120 R111A]” the Kd was 254 ± 50 µM. “SCKTSWADRAREAAAQRR [HVS ORF57^103–120 V112A]” gave a Kd of 156 ± 32 µM. SVASRLGARR [ICP27^103–112 W105A] was tested, and the Kd was 550 ± 210 µM. With SVWSALGARR [ICP27^103–112 R107A] the Kd was greater than 10000 µM. Work on SVWSRAGARR [ICP27^103–112 L108A] yielded a Kd greater than 5000 µM. TGYARIERGHRR [VZV ORF4^108–119] showed a Kd greater than 1000 µM.

Same assay, conditions: chemical shift changes in 1H-15N correlation spectra of 100 µM 15N-REF^54–155 versus increasing peptide concentration, fitted to standard equation; 30°C; NMR buffer 20 mM phosphate, 50 mM NaCl, 50 mM L-Arg/L-Glu/β-mercaptoethanol, 10 mM EDTA, pH 6.2; read-out: K D
With “…SCKTSWADRVREAAAQRR [HVS ORF57^8–120, recombinant fragment aa 8–120 of Herpesvirus saimiri ORF57, with T7 and poly-His tags]” the Kd was 78 ± 12 µM.
